Data on 13 molecules can be found in US20140303144A1, “COMPOUNDS AND METHODS OF TREATING HYPERTENSION” (Medivation Technologies, Inc., priority 2011, published 2014).

One test has as its system New Zealand White rabbits.
Test: not given
Conditions: conscious rabbits, intravenous cumulative doses, positive control.
For `Clc1cccc(Cl)c1N=C1NCCN1` [Clonidine], the “maximum drop of arterial blood pressure” value is recorded as −6 mmHg.

The next test relates to SH-SY5Y cells. The test can be described thus: Cell viability assay (MTS reduction) against 4-Br-A23187 challenge. The class given is cell-based. Conditions: Homo sapiens, SH-SY5Y, compound 10 nM, 4-Br-A23187 (2 μM) for 24 h, Control = 100, Vehicle = 0, read-out: Relative Cytoprotective capacity. Here is the method: SH-SY5Y cells cultured in DMEM/F12 media supplemented with 10% FBS were seeded in 96-well microplates at 150,000 cells/cm^2. After 24 h, cells were depleted from FBS and kept in culture for 24 h before the experiment. A stock solution was prepared by dissolving the calcium ionophore 4-Br-A23187 (Calbiochem Cat. N^o 100107) in DMSO at 25 mM. Cells were then treated with 4-Br-A23187 (2 μM), hydrogen peroxide (300 μM) or the mitochondrial toxin rotenone (25 μM) in the presence of vehicle or Compound of the Invention for 24 h. Cell death was determined by measurements of LDH release according to the Cytotoxicity Detection KitPlus (Roche, Mannheim, Germany). Cell viability was determined by measuring the capacity of cells to metabolize MTS tetrazolium (MTS) according to the Cytotoxicity Detection KitPlus (Roche, Mannheim, Germany) and MTS reduction was assessed by the CellTiter 96® AQueous One Solution Cell Proliferation assay (Promega Corporation, Madison, Wis., USA). Compounds were screened at 10 nM, using DMSO as vehicle. Assay results for the experiments with Br-A23187 were presented as the MTS reduction capacity (cell viability) of untreated cells (control), 4-Br-A23187-treated cells (vehicle), and co-incubation of Br-A23187 with Compounds of the Invention treated cells and using […] (FCCP) at 10 μM for 30 min as a control. This assay assesses the ability of the test compounds to protect against cell death that was mediated by mitochondrial dysfunction. In the assay, the calcium ionophore 4-Br-A23187 was used to challenge the cells, causing calcium levels to rise in mitochondria, which leads to depolarization and cell death. Test compounds were assessed for their ability to prevent cell death in response to challenge with 4-Br-A23187.
Background: Tetrazolium dyes change colour on reduction, which living cells bring about.
As to `CN1CCc2[nH]c3c(NCc4ccccc4)cccc3c2C1` [A3], the viability at 0.01 µM came to 35.1%.

On to `Cc1cc(C#Cc2ccc(C)nc2)c2[nH]c3c(c2c1)CN(C)CC3` [A6], for which the viability at 0.01 µM was found to be 27.6%.

For `Cc1ccc2c(c1)c1c3n2CC(c2ccncc2)OC(C)CC3(C)CN(C)C1` (stereo not shown) [D8], the viability at 0.01 µM worked out at 73.1%.

Regarding `Cc1ccc2c(c1)c1c3n2CC(c2ccc(F)cc2)CC3(C)CN(C)C1` (stereo not shown) [D2], the viability at 0.01 µM came to 38.4%.

For `Cc1cc(CCc2ccc(C)nc2)c2[nH]c3c(c2c1)CN(C)CC3` [A2], the viability at 0.01 µM is -4.41%.

Regarding `Cc1ccc2c(c1)c1c3n2CC=C(c2ccc(F)cc2)CC3(C)CN(C)C1` (stereo not shown) [D5], the viability at 0.01 µM came to 72.1%.

For `CN1CCc2[nH]c3c(N(C)Cc4ccccc4)cccc3c2C1` [A1], the viability at 0.01 µM is -1.1%.

`Cc1ccc2c(c1)c1c3n2CC(c2ccc(F)cc2)CCC3(C)CN(C)C1` (stereo not shown) [D7]: the viability at 0.01 µM is 72.1%.

For `Cc1ccc2c(c1)c1c3n2CC(C)(c2ccncc2)OC(C)CC3(C)CN(C)C1` (stereo not shown) [D9], the viability at 0.01 µM is 81.1%.

Still in this test, the particulars now being: compound 10 nM, 4-Br-A23187 (2 μM) for 24 h, Control = 100, Vehicle = 0.
As for `Cc1ccc2c(c1)c1c(n2C)C(C)(CCc2nc(-c3ccccc3)cs2)CN(C)C1` (stereo not shown) [C48], the “Relative Cytoprotective capacity” value came out at 52.14.

For `Cc1ccc2[nH]c3c(c2c1)CN(C)CC3(C)CCc1ccccc1` (stereo not shown) [C43], the “Relative Cytoprotective capacity” value was 9.618.

Take `Cc1ccc2c(c1)c1c(n2C)C(C)(CCc2ccc(C)nc2)CN(C)C1` (stereo not shown) [C45]: the “Relative Cytoprotective capacity” value was 4.348.
